Here are results for 6 compounds from patent US5243049A, “Certain pyrroloquinolinones: a new class of GABA brain receptor ligands” (Neurogen Corporation, priority 1992, dated 1993).

The first experiment deals with GABAa receptor. The experiment in a line: Inhibition of 3H-RO15-1788 [3H-Flumazenil] binding to rat cortical tissue (GABAa receptor activity). As to conditions: 0.5 nM 3H-RO15-1788, 30 min at 4° C., pH 7.4. The procedure: The pharmaceutical utility of compounds of this invention are indicated by the following assay for GABAa receptor activity.
Assays are carried out as described in Thomas and Tallman (J. Bio. Chem. 156: 9838-9842, J. Neurosci. 3:433-440, 1983). Rat cortical tissue is dissected and homogenized in 25 volumes (w/v) of 0.05M Tris HCl buffer (pH 7.4 at 4° C.). The tissue homogenate is centrifuged in the cold (4° C.) at 20,000×g for 20 minutes. The supernatant is decanted and the pellet is rehomogenized in the same volume of buffer and again centrifuged at 20,000×g. The supernatant is decanted and the pellet is frozen at -20° C. overnight. The pellet is then thawed and rehomogenized in 25 volume (original wt/vol) of buffer and the procedure is carried out twice. The pellet is finally resuspended in 50 volumes (w/vol of 0.05M Tris HCl buffer (pH 7.4 at 4° C.).
Incubations contain […] of radioligand 0.5 nM (^3 H-RO15-1788 [^3 H-Flumazenil] specific activity 80 Ci/mmol), drug or blocker and buffer to a total volume of […]. Incubations are carried for 30 min at 4° C. then are rapidly filtered through GFB filters to separate free and bound ligand. Filters are washed twice with fresh 0.05M Tris HCl buffer (pH 7.4 at 4° C.) and counted in a liquid scintillation counter. […] diazepam is added to some tubes to determine nonspecific binding. Data are collected in triplicate determinations, averaged and % inhibition of total specific binding is calculated. Total Specific Binding=Total-Nonspecific. In some cases, the amounts of unlabeled drugs is varied and total displacement curves of binding are carried out. Data are converted to a form for the calculation of IC50 and Hill Coefficient (nH).
`O=C1c2c(c3ccccc3[nH]c2=O)C(=O)N1c1ccccc1` [Compound 1, 2'-Phenyl-pyrrolo[3,4-c]quinoline-1,3,4(5H)-trione]: the IC50 – broadly, the concentration that gives 50% inhibition – stood at 36 nM.
Turning to `COc1ccc(N2C(=O)c3c(c4ccccc4[nH]c3=O)C2=O)cc1` [Compound 2, 2-(4-Methoxyphenyl)-pyrrolo[3,4-c]quinoline-1,3,4(5H)-trione], the IC50 was 400 nM. Against the preceding compound, the IC50 is about 11-fold higher.
`O=C1c2c(c3ccccc3[nH]c2=O)CN1c1ccccc1` [Compound 16, 2-Phenyl-pyrrolo[3,4-c]quinoline-3(1H),4(5H)-dione] yielded an IC50 of 602 nM.
`O=C1c2c(c3ccccc3[nH]c2=O)C(=O)N1c1ccccc1F` [Compound 4, 2-(2-Fluorophenyl)-pyrrolo[3,4-c]quinoline-1,3,4(5H)-trione] registered an IC50 of 700 nM.

In a further experiment the test system is benzodiazepine binding site / GABA receptor.
Assay: not given
The conditions noted are these: brain membranes; cited from earlier work.
Consider `CN1CCc2cc3c(cc2[C@H]1[C@@H]1OC(=O)c2c1ccc1c2OCO1)OCO3` [(+) bicuculline], for which the “Block of enhancement of benzodiazepine binding by GABA agonists” value is “blocked”.
As for `CN1CCc2cc3c(cc2[C@@H]1[C@H]1OC(=O)c2c1ccc1c2OCO1)OCO3` [(-) bicuculline], the “Block of enhancement of benzodiazepine binding by GABA agonists” value was “much less active”.
